The structures appear in SMILES notation. Where two headings read alike, the source gives them in different places.

The data set deals with radiation-induced oral mucositis, left buccal cheek pouch. The class given is in vivo. The note with it: for mean daily mucositis scores vs untreated control (Mann-Whitney Rank-sum), efficacy: topical three times per day. An excerpt: In the irradiated hamster cheek pouch model of oral mucositis, the hamster cheek pouch is everted and irradiated to produce a localized mucositis. The progression and resolution of mucositis in the hamster model is very similar to that observed in the human condition and the model has been validated clinically with respect to dosing schedules of therapeutic agents (Murphy et al., Clin. Cancer Res., 2008, 14, 4292-4297; Alvarez et al., Clin. Cancer Res., 2003, 9, 3454-3461; and Schuster et al., J. Clin. Oncol., 2006, 24, 6537). Briefly, on day 0, all animals were given an acute radiation dose directed to their left buccal cheek pouch. Test articles were applied topically to the left pouch three times per day from day 0 to day 20 and mucositis was evaluated clinically starting on day 6, and continued on alternate days until […]. Study endpoints were mucositis score, weight change and survival. Mucositis was scored visually by comparison to a validated photographic scale. The scale ranges from 0 for normal, to 5 for severe ulceration. The clinical mucositis score of 3 in hamsters indicates the presence of an ulcer. In terms of the syndrome, it is believed that the dose-limiting chemotherapeutic- or radiation-induced pain is associated with frank ulceration; therefore a compound that prevents ulceration in the model might have utility in the clinical setting.
To evaluate mucositis severity, animals were anesthetized with an inhalation anesthetic, and the left cheek pouch everted. Mucositis was scored visually by comparison to a validated photographic scale. The scale ranges from 0 for normal, to 5 for severe ulceration. In descriptive terms, this scale is defined as follows: […]
A score of 1-2 is considered to represent a mild stage of injury, whereas a score of 3-5 is considered to indicate moderate to severe mucositis. In terms of the syndrome, it is believed that the dose-limiting chemotherapeutic- or radiation-induced pain is associated with frank ulceration; therefore a compound that prevents ulceration in the model might have utility in the clinical setting. In the hamster model, a clinical mucositis score of 3 indicates the presence of an ulcer and the duration of scores of 3 or greater is used as a primary measurement of efficacy in mucositis treatment. Ulceration is the point in the development of mucositis where the physical integrity of the oral mucosa is breached. In the clinic, a patient presenting with severe oral ulcerations may require hospitalization for analgesic, narcotic and/or antibiotic therapies or fluid support.
On day 0, all animals were given an acute radiation dose directed to their left buccal cheek pouch. This was accomplished by anesthetizing the animals and everting the left buccal pouch, while protecting the rest of the animals with a lead shield. Test agents were applied topically to the left buccal pouch three times per day from day 0 to day 20. Mucositis was evaluated clinically starting on day 6, and continued on alternate days until day 28. Study endpoints were mucositis score, weight change and survival. Mucositis was scored visually by comparison to a validated photographic scale. No treatment-related deaths were recorded throughout the study. The mean daily percent weight gains were similar in all groups and there were no apparent toxicities in any of the test agent treatment groups. Differences between the ulcerative severity in controls and the treated groups were assessed in two ways. First, mean daily mucositis scores for each group at each time-point were compared with the untreated control group using the Mann-Whitney Rank-sum analysis. […] At 0.3 mg/ml, efficacy was partial early in the treatment period.
Alternately, ulcerative severity differences between control and treatment groups were assessed by the comparison of the number of days with an ulcer (i.e., a score of 3 or higher) using a chi-squared (χ2) test.

Turning to `N=C(N)NCCCCC(=O)Nc1cc(C(F)(F)F)cc(NC(=O)c2cc(C(=O)Nc3cc(C(F)(F)F)cc(NC(=O)CCCCNC(=N)N)c3OC3CCNC3)ncn2)c1OC1CCNC1` (centres unmarked) [Compound X], the “mean daily mucositis scores vs untreated control (Mann-Whitney Rank-sum), efficacy” value (0.3 mg/ml, early in the treatment period) is listed as “partial”; the “mean daily mucositis scores vs untreated control (Mann-Whitney Rank-sum), efficacy” value (1, 3 and 10 mg/ml groups, by Day 12 through Day 28) is “robust efficacy”. Besides, the “mucositis scores, number of days with an ulcer (score of 3 or higher), chi-squared test vs control” value (1, 3 and 10 mg/ml/dose, p<0.001) is “statistically significant improvements”. Besides, where the note is “1, 3 and 10 mg/ml/dose, vehicle control 42.7%”, the “treatment days with a clinical score ≥3” value was below 5%. The “% reduction of animal days with OM scores ≥ 3” value (Acute Radiation) is reported as 90.6%-95.3%. In addition, under “Kleptose in the vehicle or with 1 mg/kg Compound X”, the “impact of Kleptose on the response (mucositis scores)” value was “did not significantly impact the response”. The “daily mean mucositis scores and number of days animals exhibited ulceration” value (acute radiation model, oral rinse 3 times daily, 28 day treatment regimen) was “significantly reduced”. The “adverse findings in weight gain, general behavior in the home cage, or clinical signs” value (hamster, in vivo) is “no adverse findings”.

The values are drawn from patent US10206894B2, “Compounds for use in treatment of mucositis” (priority 2011, dated 2019).
